{"source": "patent US20080200393A1", "about": "“Method and Composition For Treating Angiogenesis and For Preventing Cancer Progression and Metastasis Comprising a Prostate Secretory Protein (Psp94) Family Member” (Ambrillia Biopharma Inc., priority 2004, published 2008)", "key": {"ERK [1]": {"system": "ERK", "assay": "Induced ERK phosphorylation in HUVEC (Western blot)", "format": "cell-based, Human", "method": "(§1) Cell culture. Human umbilical vein endothelial cells (HUVEC) and pulmonary aortic smooth muscle cells (PASMC) were obtained from Clonetics and maintained in endothelial cell basal medium-2 (EBM-2; Clonetics) and smooth muscle medium-2 (SmGM-2; Clonetics), respectively. Cells were cultured at 37° C. under a humidified atmosphere containing 5% CO2. For experimental purposes, cells were plated in 8 100-mm plastic dishes at 5,000 cells/cm^2 and were grown to confluence before overnight serum starvation. Cells were treated with vehicle or with a PCK3145 derivative diluted in 0.1 N NaOH, and stimulated with 50-100 ng/ml VEGF or PDGF, with 10 ng/ml of bFGF (basic fibroblast growth factor) or with 1 μM S1P (sphingosine-1-phosphate).\nImmunoprecipitation and immunoblotting procedures. After treatment, cells were washed once with phosphate-buffered saline (PBS) containing 1 mM sodium orthovanadate and were incubated in the same medium for 1 h at 4° C. The cells were solubilized on ice in lysis buffer (150 mM NaCl, 10 mM Tris-HCl, pH 7.4, 1 mM EDTA, 1 mM EGTA, 0.5% Nonidet P-40, 1% Triton X-100) containing 1 mM sodium orthovanadate. The cells were then scraped from the culture dishes and the resulting lysates were clarified by centrifugation at 10,000 g for 10 min; Protein concentrations were determined using the micro bicinchoninic acid method (Pierce). For immunoprecipitation studies, lysates were clarified by a 1 h incubation at 4° C. with a mixture of Protein A/Protein G Sepharose beads. After removal of the Sepharose beads by low-speed centrifugation, identical amounts of protein (200 μg) from each sample were transferred to fresh tubes and incubated in lysis buffer overnight at 4° C. in the presence of 2 μg/ml of specific antibodies. Immunocomplexes were collected by incubating the mixture with 25 μl (50% suspension) of Protein A- (rabbit primary antibody) or Protein G- (mouse primary antibody) Sepharose beads, for 2 h. Nonspecifically-bound material was removed by washing the beads three times in 1 ml of lysis buffer containing 1 mM sodium orthovanadate, and bound material was solubilized in 25 μl of two-fold concentrated Laemmli sample buffer (125 mM Tris-HCl (pH 6.8), 20% glycerol, 4% SDS, 10% β-mercaptoethanol, and 0.00125% bromphenol blue), boiled 5 min, and resolved by SDS-PAGE. The proteins were transferred onto polyvinylidene difluoride (PVDF) membranes, blocked 1 h at room temperature with Tris-buffered saline/Tween 20 (147 mM NaCl, 20 mM Tris/HCl, pH 7.5, and 0.1% Tween 20) containing 2% bovine serum albumin and incubated overnight at 4° C. with primary antibody. […] The immunoreactive bands were quantified by scanning densitometry (Molecular Dynamics).\nVEGF is a strong activator of ERKs (Extracellular-signal-Regulated protein Kinases) 1 and 2 via VEGF receptor 2. In order to test the ability of the PCK3145 derivative in potentially antagonizing VEGF-mediated ERK phosphorylation, serum-starved quiescent endothelial cells (HUVEC) were incubated with vehicle (phosphate-buffered saline (PBS) pH 7.4) or PCK3145 derivative (300 μg/ml) for 24 h and then stimulated with VEGF, bFGF (basic Fibroblast Growth Factor) or S1P (sphingosine-1-phosphate). Cells were washed with PBS containing NaF/Na3VO4 and incubated in the same medium buffer for 1 h at 4° C. The cells were scraped from the culture dishes and the resulting lysates clarified by centrifugation. Western blotting and immunodetection using anti-phosphoERK and anti-ERK antibodies was then performed."}, "PDGF receptor (PDGFR)": {"molecular_target": "T1, PDGF receptor (PDGFR) (Homo sapiens, UniProt P09619)", "T1 construct": "the PDGF receptor (PDGFR) in PASMC (pulmonary aortic smooth muscle cells); host or cells: PASMC (pulmonary aortic smooth muscle cells)", "T1 sequence (P09619 33-1106)": "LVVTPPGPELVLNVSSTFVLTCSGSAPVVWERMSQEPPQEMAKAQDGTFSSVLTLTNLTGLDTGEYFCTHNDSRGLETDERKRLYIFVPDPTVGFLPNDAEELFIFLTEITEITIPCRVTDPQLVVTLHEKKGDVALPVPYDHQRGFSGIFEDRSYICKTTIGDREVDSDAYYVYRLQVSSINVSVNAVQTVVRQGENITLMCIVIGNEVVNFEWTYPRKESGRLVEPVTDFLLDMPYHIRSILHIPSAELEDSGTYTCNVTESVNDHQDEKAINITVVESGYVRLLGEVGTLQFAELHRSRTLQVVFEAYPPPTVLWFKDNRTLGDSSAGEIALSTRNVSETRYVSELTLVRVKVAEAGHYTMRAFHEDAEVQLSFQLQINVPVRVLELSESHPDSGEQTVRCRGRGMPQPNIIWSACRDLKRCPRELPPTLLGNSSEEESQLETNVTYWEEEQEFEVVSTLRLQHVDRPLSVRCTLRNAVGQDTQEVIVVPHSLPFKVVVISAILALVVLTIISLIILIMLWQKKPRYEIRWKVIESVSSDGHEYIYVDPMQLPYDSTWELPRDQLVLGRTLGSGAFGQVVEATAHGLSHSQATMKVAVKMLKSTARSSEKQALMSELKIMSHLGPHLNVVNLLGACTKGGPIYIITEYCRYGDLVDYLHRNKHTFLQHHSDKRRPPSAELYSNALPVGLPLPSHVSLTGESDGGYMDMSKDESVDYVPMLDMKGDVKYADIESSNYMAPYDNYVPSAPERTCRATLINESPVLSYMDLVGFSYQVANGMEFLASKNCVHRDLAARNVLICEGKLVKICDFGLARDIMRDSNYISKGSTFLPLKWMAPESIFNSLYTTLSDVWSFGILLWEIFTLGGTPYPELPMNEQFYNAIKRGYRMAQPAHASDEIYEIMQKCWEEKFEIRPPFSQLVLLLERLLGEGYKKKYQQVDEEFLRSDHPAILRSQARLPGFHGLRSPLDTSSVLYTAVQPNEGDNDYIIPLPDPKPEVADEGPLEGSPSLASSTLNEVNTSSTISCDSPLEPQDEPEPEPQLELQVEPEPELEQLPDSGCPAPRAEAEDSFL", "assay": "PDGF-induced PDGFR phosphorylation in PASMC", "format": "cell-based", "method": "as §1\n(§2) Immunoprecipitation and immunoblotting procedures. After treatment, cells were washed once with phosphate-buffered saline (PBS) containing 1 mM sodium orthovanadate and were incubated in the same medium for 1 h at 4° C. […] The cells were then scraped from the culture dishes and the resulting lysates were clarified by centrifugation at 10,000 g for 10 min; Protein concentrations were determined using the micro bicinchoninic acid method (Pierce). […] The immunoreactive bands were quantified by scanning densitometry (Molecular Dynamics). […]"}, "ERK [2]": {"system": "ERK", "assay": "PDGF-induced ERK phosphorylation in PASMC", "format": "cell-based", "method": "as §1, §2"}, "ERK [3]": {"system": "ERK", "assay": "Intrinsic effect on ERK phosphorylation (Western blot)", "format": "cell-based", "method": "The induction of the MAPK pathway by the PCK3145 derivative is further confirmed by the rapid and transient induction of ERK phosphorylation between 5-10 minutes (FIG. 8B) and is shown to be dose-dependent (FIG. 8C). Finally, the effects of the PCK3145 derivative were also compared to those of a scrambled peptide."}, "CD44": {"system": "CD44", "assay": "CD44 cell surface shedding (Western blot of conditioned media)", "format": "cell-based", "conditions": "serum-starved U-87, 300 ug/ml, 24 hours", "method": "Decreased cell migration and adhesion on HA was observed when U-87 cells were pretreated with the PCK3145 derivative. This can be interpreted as either a potential downregulation of CD44 expression at the cell surface or by a potential cell surface shedding. The latter hypothesis was tested by incubating serum-starve U-87 cells for 24 hours with the PCK3145 derivative (300 ug/ml), a concentration known to antagonize MMP secretion. The conditioned media was then TCA-precipitated and Westernblotting an immunodetection for a 75 kDa immunoreactive protein using the anti-CD44 antibody was performed. […] This effect is also shown in parallel with MT1-MMP-transfected cells. Such effect has been already reported by many groups and is established as one of the MT1-MMP-mediated functions in the regulation of the ECM adhesion. […] This induction has subsequently been reproduced below. Altogether, these observations provide a rational for the diminished cell migration/adhesion to HA."}}, "note": "Where no end group is shown, it is not given here."}
{"sequence": "EWQTDNCETCTCYET (cysteine pairing not given here) [PCK3145 derivative, PCK3145 derivative with acetylaminomethyl groups on the three cysteines]", "values": [{"measurement": "extent of ERK phosphorylation by VEGF, dose-response", "setting": "ERK [1]", "result": "gradually inhibit"}, {"measurement": "ERK phosphorylation induced by S1P", "setting": "ERK [1]; 300 μg/ml, 24 h", "result": "not that induced by bFGF or S1P"}, {"measurement": "ERK phosphorylation induced by VEGF", "setting": "ERK [1]; 300 μg/ml, 24 h", "result": "specific inhibitory effect"}, {"measurement": "total amount of ERK", "setting": "ERK [1]; 300 μg/ml, 24 h", "result": "unaffected"}, {"measurement": "VEGF-induced ERK phosphorylation, time-course", "setting": "ERK [1]; 3 and 24 hrs", "result": "necessity of a long term action"}, {"measurement": "PDGFR phosphorylation induced by PDGF", "setting": "PDGF receptor (PDGFR)", "result": "inhibition"}, {"measurement": "PDGF-induced ERK phosphorylation", "setting": "ERK [2]", "result": "inhibition"}, {"measurement": "induction of ERK phosphorylation, dose dependence", "setting": "ERK [3]; dose-response", "result": "dose-dependent"}, {"measurement": "time of rapid and transient induction of ERK phosphorylation", "setting": "ERK [3]; time-course", "result": "5 to 10", "unit": "min"}, {"measurement": "CD44 cell surface shedding", "setting": "CD44", "result": "increased"}]}
